Results on 2 molecules are retold here after ChEMBL document CHEMBL5727172, “Inhibitors of hepatitis C virus” (2019).

SMILES strings stand for the structures. “And” between values parts separate entries of the source, which are not always exact repeats. Equal entries are not always repeated.

The experiment in a line: The internally quenched fluorogenic depsipeptide substrate Ac-DED(Edans)-EEAbuΨ[COO]ASK(Dabcyl)-NH2 and a synthetic peptide containing the hydrophobic core residues of the NS4A protein cofactor ([…]; NS4A peptide) were obtained from Anaspec, Inc. (San Jose, Calif.). Other chemicals and biochemicals were of reagent grade or better and were purchased from standard suppliers.Reactions were run at room temperature in buffer consisting of 50 mM HEPES, 40% glycerol, 0.05% Triton X-100, 10 mM DTT, and 10% DMSO. The final assay solutions contained 50 pM NS3 genotype 1 b protease or 200 pM genotype 3a protease, 20 μM NS4A peptide, and 4 μM substrate (genotype 1b) or 2 μM substrate (genotype 3a). Inhibitor concentrations varied from 100 nM to 5 pM in 3-fold dilutions, and no-inhibitor controls were included.Compound dilutions were made in DMSO at 20× final concentration. Reaction mixtures were prepared in 96-well assay plates. A solution of enzyme and NS4A peptide in assay buffer (25 μL volume with both reagents at 4× final concentration) was mixed with 45 μL assay buffer and 5 μL of either inhibitor or DMSO, and pre-incubated at room temperature for 1 hour. The reaction was started by addition of 25 μL substrate solution at 4× final concentration. […].

The Ki is a dissociation constant, usually derived from enzyme kinetics or from competition with a known ligand.

In the case of `C=CCCC[C@@H]1CCCC1(OC(=O)N[C@H](C(=O)N1C[C@H](Oc2nc3cc(OC)ccc3nc2Cl)[C@@H](CC)[C@H]1C(=O)OC(C)(C)C)C(C)(C)C)C(F)(F)F` (some centres not stated), the Ki was 590 pM and 520 pM.

As for `C=CCC[C@@H]1C[C@H]1OC(=O)N[C@H](C(=O)N1C[C@H](Oc2nc3cc(OC)ccc3nc2C(F)(F)C=C)[C@@H](C)[C@H]1C(=O)OC(C)(C)C)C(C)(C)C`, the Ki was 50 pM and 190 pM.
